≈ marks a conversion by molar mass, not a printed value.

The term ED50 denotes the dose that gives a 50% effect, or the effect in half of the subjects.

One assay relates to S.abortivoequina. As to the kind of experiment: in vitro MIC by serial dilution, S.abortivoequina. The format is cell-based. The settings on record: Salmonella; S.abortivoequina; serial dilutions in Penassay Seed Broth Difco, 10^4 bacteria/ml; read-out: MIC (minimal inhibitory concentration). On the procedure: (§1) A series of comparative tests was carried out in vitro with the method of serial dilutions in Penassay Seed Broth Difco inoculated with 10^4 bacteria/ml (overnight cultures).
(§2) Table 1 below reports the results of the above assays as MIC (minimal inhibitory concentration, mcg/ml).

Another assay relates to Staphylococcus aureus. As to the kind of experiment: in vivo therapeutic activity on mice experimentally infected with Staphylococcus aureus. Set-up: species or system male Swiss Cobs albino mice. The settings on record: Staphylococcus aureus, sc, 168 h, Table 2, 2 LD50/mouse i.p., subcutaneous treatment 4 h after infection, 7 days, read-out: ED50 (dose effective in curing 50% of the infected mice). As to the method:
(§3) In vivo tests for therapeutic activity were carried out on mice experimentally infected with Staphylococcus aureus and Salmonella abortivoequina (Infective dose: 2 LD50 /mouse i.p.); groups of 6 male Swiss Cobs albino mice were used. The infected animals were treated by the subcutaneous route 4 h after infection. The mortality rate was recorded every day for 7 days. The activity was assessed as ED50 (Dose effective in curing 50% of the infected mice as mg/Kg--see Reed and Muench, Am. J. Hyg. 27, 493, 1938.)

The next assay has as its system S.typhimurium. In words: in vitro MIC by serial dilution, S.typhimurium. Type of assay: cell-based. The settings on record: Salmonella enterica; S.typhimurium; serial dilutions in Penassay Seed Broth Difco, 10^4 bacteria/ml; read-out: MIC (minimal inhibitory concentration). On the procedure:
as §1, §2

Another assay deals with K.pneumoniae. As to the kind of experiment: in vitro MIC by serial dilution, K.pneumoniae. Type of assay: cell-based. The settings on record: Klebsiella pneumoniae; K.pneumoniae; serial dilutions in Penassay Seed Broth Difco, 10^4 bacteria/ml; read-out: MIC (minimal inhibitory concentration). On the procedure: as §1, §2
In assay [1] the test system is Salmonella abortivoequina. In words: in vivo therapeutic activity on mice experimentally infected with Salmonella abortivoequina. Also on record: species or system male Swiss Cobs albino mice. The settings on record: sc, 168 h; mice infected with Salmonella abortivo equina, subcutaneous 4 h after infection; read-out: ED50. On the procedure:
as §3

The next assay relates to E.coli B. As to the kind of experiment: in vitro MIC by serial dilution, E.coli B. Type of assay: cell-based. The settings on record: Escherichia coli; E.coli B; serial dilutions in Penassay Seed Broth Difco, 10^4 bacteria/ml; read-out: MIC (minimal inhibitory concentration). As to the method: as §1, §2
The subject of a further assay is S.aureus. As to the kind of experiment: in vitro MIC by serial dilution, S.aureus. The format is cell-based, Staphylococcus aureus. Conditions: Staphylococcus aureus; S.aureus; serial dilutions in Penassay Seed Broth Difco, 10^4 bacteria/ml; read-out: MIC (minimal inhibitory concentration). On the procedure: as §1, §2
The subject of another assay is P.mirabilis. As to the kind of experiment: in vitro MIC by serial dilution, P.mirabilis. The format is cell-based. The settings on record: Proteus mirabilis; P.mirabilis; serial dilutions in Penassay Seed Broth Difco, 10^4 bacteria/ml; read-out: MIC (minimal inhibitory concentration). On the procedure: as §1, §2
The next assay has as its system S.pyogenes. In words: in vitro MIC by serial dilution, S.pyogenes. Type of assay: cell-based. Conditions: Streptococcus pyogenes; S.pyogenes; serial dilutions in Penassay Seed Broth Difco, 10^4 bacteria/ml; read-out: MIC (minimal inhibitory concentration). On the procedure:
as §1, §2

In another assay the test system is S.flexneri. In words: in vitro MIC by serial dilution, S.flexneri. The format is cell-based. The settings on record: Shigella flexneri; S.flexneri; serial dilutions in Penassay Seed Broth Difco, 10^4 bacteria/ml; read-out: MIC (minimal inhibitory concentration). As to the method:
as §1, §2

Regarding `Cc1nnc(SCC2=C(C(=O)O)N3C(=O)[C@@H](NC(=O)Cn4cnnn4)[C@H]3SC2)s1` [cephazolin, reference compound], the MIC with S.abortivoequina was 1.25 µg/mL (≈ 2.75 µM); in the assay on S.typhimurium, 1.5 µg/mL (≈ 3.3 µM); with K.pneumoniae, 0.6 µg/mL (≈ 1.32 µM); with E.coli B, 1.25 µg/mL (≈ 2.75 µM); with S.aureus, 0.1 µg/mL (≈ 0.22 µM); in the assay on P.mirabilis, 3.1 µg/mL (≈ 6.82 µM). Besides, the MIC in the assay on S.pyogenes was 1.25 µg/mL (≈ 2.75 µM); with S.flexneri it was 1.5 µg/mL (≈ 3.3 µM). For the same molecule, the ED50 in the assay on Staphylococcus aureus is 30 mg/kg; in assay [1], 25 mg/kg.
